Ends that are not written are not given here.
Key:
[1] = molecular target: T1, purified H-2 D^b molecules (Mus musculus, UniProt P01899); test: MHC peptide-binding assay, purified H-2 D^b; details: purified MHC, radiolabeled peptide competition; read-out: Binding affinity (IC50 nM) H2-D^b
T1 construct: made in house
Experimental: Briefly, 0.1-1 nM of radiolabeled peptide was co-incubated at room temperature with 1 μM to 1 nM of purified MHC in the presence of 1-3 μM human β2-microglobulin (Scripps Laboratories) and a mixture of protease inhibitors. After a 2 day incubation, binding of the radiolabeled peptide to the corresponding MHC class I molecule was determined by capturing MHC/peptide complexes on Lumitrac 600 microplates (Greiner Bio-One) coated with either the Y3 (anti-H-2 K^b) or 28-14-8S (anti-H-2 D^b, L^d and D^q) Ab, followed by measurement of bound counts per minute (cpm) using the TopCount microscintillation counter (Packard).

CD8^+ T cells = test: Intracellular cytokine staining (IFN-γ), splenocytes of S221-infected IFN-α/βR^−/− mice; format: cell-based; details: day 7 after 10^10 GE S221
Experimental: All Ab were purchased from eBioscience with the exception of anti-CD8α-PerCP and anti-CD107a-FITC which were obtained from BD Biosciences. RBC in blood were lysed using RBC lysis buffer (eBioscience). For surface staining, splenocytes or blood cells were washed, incubated with supernatant from 2.4G2-producing hybridoma cells to block Fc receptors, and labeled with anti-CD8α-PerCP, anti-CD44-APC, and anti-CD62L-PE. For intracellular cytokine staining, 10^6 splenocytes or 10^5 blood cells were plated in 96-well U-bottom plates and stimulated with individual DENV peptides (0.1 μg/ml) in the presence of brefeldin A (GolgiPlug, BD Biosciences) for 5 h. For CD107a staining, CD107a-FITC (or rat IgG2a-FITC) was added to the wells at the same time as the peptide. Cells were washed, incubated with 2.4G2 supernatant, labeled with anti-CD8α-PerCP, fixed and permeabilized using the BD Cytofix/Cytoperm Kit, and stained with anti-IFN-γ-APC and anti-TNF-α-PE. Samples were read on a FACS Caliber (BD Biosciences) and analyzed using FloJo software (Tree Star, Inc.)
The S221-specific CD8^+ T cell response in the IFN-α/βR^−/− mice was studied. […]
The S221-specific CD8^+ T cell response in IFN-α/βR^−/− mice was further studied. […] Referring to FIGS. 5C, 5E and 5F, the number of splenic CD8^+ T cells in naïve (n=4) and infected (n=7) mice was measured (results described above). […] The data are expressed as the percent±SEM of seven mice tested in three independent experiments.
The initial epitope identification studies were performed in wild-type mice. […] Cells were then stained for surface CD8 and intracellular IFN-γ and analyzed by flow cytometry. […] Results are expressed as the mean±SEM of 13 wild-type and 7 IFN-α/βR^−/− mice were tested in at least three independent experiments. Referring FIGS. 8C and D, the figures show kinetics of the DENV-specific CD8^+ T cell response as determined by the study. […]

T1 sequence (P61769 21-119): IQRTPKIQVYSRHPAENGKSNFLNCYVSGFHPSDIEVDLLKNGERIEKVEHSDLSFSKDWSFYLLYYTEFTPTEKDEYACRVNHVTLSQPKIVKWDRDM
T1 sequence (P01899 25-362): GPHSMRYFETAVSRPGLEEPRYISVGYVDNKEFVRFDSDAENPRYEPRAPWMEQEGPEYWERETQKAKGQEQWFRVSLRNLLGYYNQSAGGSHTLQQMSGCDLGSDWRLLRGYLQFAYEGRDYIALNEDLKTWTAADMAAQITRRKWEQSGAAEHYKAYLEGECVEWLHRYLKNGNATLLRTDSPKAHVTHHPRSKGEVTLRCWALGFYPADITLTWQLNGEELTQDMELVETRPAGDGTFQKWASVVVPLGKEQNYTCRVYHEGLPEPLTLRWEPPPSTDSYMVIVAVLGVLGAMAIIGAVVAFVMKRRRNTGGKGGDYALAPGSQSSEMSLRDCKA

With YSQVNPITL [NS4B99-107] the IC50 [1] was 1.3 nM, the “% of splenic CD8^+ T cells recognizing the peptide” value (CD8^+ T cells) was 16.5% and the “number of CD8^+ T cells producing IFN-γ (average)” value (CD8^+ T cells; spleen) was 1.1×10^7 CD8^+ T cells.

— US20110150914A1, “COMPOSITIONS AND METHODS FOR DENGUE VIRUS (DV) TREATMENT AND VACCINATION” (priority 2008, published 2011)
